# Like-named read-outs stand apart in the source and are kept apart here.
# Legend:
# [1] = cited from earlier work
# [2] = rabbit, in vivo
# Text: Analytes and internal standard (roxithromycine) were extracted from the tissues using acetonitrile and separated by reverse phase liquid chromatography with a C8 column and a gradient mobile phase. […] The unweighed linear model was applied.
# [3] = implantation of 0.59 mg or 2.1 mg, noninfectious posterior uveitis patients; cited from earlier work
# [4] = high-dose intraocular, long-term follow-up; cited from earlier work
# [5] = 0.59 mg intravitreal implant, patients with diabetic macular edema; cited from earlier work
# [6] = subtenon administration; cited from earlier work
# [7] = single oral administration of 7.5 mg dexamethasone
smiles,measurement,setting,value
"C[C@@H]1C[C@H]2[C@@H]3CCC4=CC(=O)C=C[C@]4(C)[C@@]3(F)[C@@H](O)C[C@]2(C)[C@@]1(O)C(=O)CO [D, dexamethasone]",Dexamethasone penetration into the vitreous humour,[1]; repeated topical application: 1 drop of 0.1% dexamethasone phosphate drops hourly for 10 hours,less than 2 ng/ml
same,Serum level,[1]; [7],60 ng/mL
same,Vitreous level,[1]; [7],5 ng/mL
same,"Concentration in choroid, mean",[2]; 1 days,12 nmol/g
same,"Concentration in retina, mean",[2]; 1 days,7 nmol/g
same,"Concentration in choroid, mean",[2]; 7 days,12 nmol/g
same,"Concentration in retina, mean",[2]; 7 days,11 nmol/g
same,"Concentration in choroid, mean",[2]; 14 days,9 nmol/g
same,"Concentration in retina, mean",[2]; 14 days,6 nmol/g
same,"Concentration in choroid, mean",[2]; 28 days,4 nmol/g
same,"Concentration in retina, mean",[2]; 28 days,4 nmol/g
same,"Concentration in aqueous humor, mean",[2]; 60 days,0 nmol/g
same,"Concentration in choroid, mean",[2]; 60 days,3 nmol/g
same,"Concentration in retina, mean",[2]; 60 days,2 nmol/g
CC1(C)O[C@@H]2C[C@H]3[C@@H]4C[C@H](F)C5=CC(=O)C=C[C@]5(C)[C@@]4(F)[C@@H](O)C[C@]3(C)[C@]2(C(=O)CO)O1 [fluocinolone acetonide],Augmentation of the need of IOP lowering agents,[3],5 fold
same,Eyes developing elevated IOP,[4],100%
same,Eyes requiring implant removal,[4],approximately 60%
same,Eyes showing nonischemic central retinal vein occlusion,[4],30%
same,Serious cataract progression,[5],43.1%
same,Serious intraocular pressure rise,[5],8.6%
CC1(C)O[C@@H]2C[C@H]3[C@@H]4CCC5=CC(=O)C=C[C@]5(C)[C@@]4(F)[C@@H](O)C[C@]3(C)[C@]2(C(=O)CO)O1 [triamcinolone acetonide],Patients with intraocular pressure rise,[6],21%

# Reference: US8227452B2, “Use of a steroid prodrug for the treatment of disease of the posterior segment of the eye” (Novagali Pharma SA, priority 2006, dated 2012)
